Each compound was assayed against ADAMTS4 (Homo sapiens (Human), UniProt O75173) (assay: Selectivity assay for ADAMTS-7 modulators: ADAMTS4 (FRET substrate)). Details: ADAMTS4 (R&D 4307-AD) 50 nM, substrate Dabcyl-EEVKAKVQPY-Glu(Edans)-NH2 1 μM, 120 min, 32° C.
Type: biochemical
Protocol: 1 μl test compound solution (dissolved in DMSO, at the corresponding concentration) or pure DMSO as a control was added per well. The enzymatic reaction was initiated by addition of 25 μl of the respective concentration of the respective FRET substrate (see table 2 below) in reaction buffer.
The increase of fluorescence intensity was measured in appropriate fluorescence plate reader (e.g. TECAN Ultra) using the respective wavelengths for excitation and emission. IC50 values were calculated from percentage of inhibition of enzyme activity as a function of test compound concentration.

Sequence of ADAMTS4 (O75173 213-685): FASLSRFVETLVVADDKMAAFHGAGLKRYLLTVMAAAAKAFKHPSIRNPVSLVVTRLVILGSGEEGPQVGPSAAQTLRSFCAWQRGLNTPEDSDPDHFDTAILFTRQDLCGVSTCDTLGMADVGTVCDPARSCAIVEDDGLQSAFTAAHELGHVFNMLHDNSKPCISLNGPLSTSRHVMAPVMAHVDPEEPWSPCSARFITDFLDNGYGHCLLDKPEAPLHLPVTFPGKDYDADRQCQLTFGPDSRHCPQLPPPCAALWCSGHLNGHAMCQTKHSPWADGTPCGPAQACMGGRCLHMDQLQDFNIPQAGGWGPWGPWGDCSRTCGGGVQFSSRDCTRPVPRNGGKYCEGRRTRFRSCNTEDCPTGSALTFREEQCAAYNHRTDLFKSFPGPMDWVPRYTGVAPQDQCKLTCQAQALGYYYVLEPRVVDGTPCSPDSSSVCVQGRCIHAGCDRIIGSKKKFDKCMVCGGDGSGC

Row | SMILES | IC50
1 | Cc1cnoc1C1(CNC(=O)c2ccccc2-c2ccc(C(F)(F)F)cc2)NC(=O)NC1=O (racemic) [Example 59, Rac-N-{[4-(4-Methyl-1,2-Oxazol-5-Yl)-2,5-Dioxoimidazolidin-4-Yl]Methyl}-4′-(Trifluoromethyl)[Biphenyl]-2-Carboxamide] | 23 µM
2 | Cc1nn(C)cc1C1(CNC(=O)c2ccccc2-c2ccc(C(F)(F)F)cc2)NC(=O)NC1=O (racemic) [Example 60, Rac-N-{[4-(1,3-Dimethyl-1H-Pyrazol-4-Yl)-2,5-Dioxoimidazolidin-4-Yl]Methyl}-4′-(Trifluoromethyl)[Biphenyl]-2-Carboxamide] | 15 µM
3 | Cc1nsnc1C1(CNC(=O)c2ccccc2-c2ccc(C(F)(F)F)cc2)NC(=O)NC1=O (racemic) [Example 62, Rac-N-{[4-(4-Methyl-1,2,5-Thiadiazol-3-Yl)-2,5-Dioxoimidazolidin-4-Yl]Methyl}-4′-(Trifluoromethyl)[Biphenyl]-2-Carboxamide] | 26 µM
4 | Cc1cnoc1C1(CNC(=O)c2ccccc2-c2ccc(C(F)(F)F)nc2)NC(=O)NC1=O (racemic) [Example 77, Rac-N-{[4-(4-Methyl-1,2-Oxazol-5-Yl)-2,5-Dioxoimidazolidin-4-Yl]Methyl}-2-[6-(Trifluoromethyl)Pyridin-3-Yl]Benzamide] | 40 µM
5 | CCC1(CNC(=O)c2ccccc2-c2ccc(C(F)(F)F)cc2)NC(=O)NC1=O (racemic) [Example 81, Rac-N-[(4-Ethyl-2,5-Dioxoimidazolidin-4-Yl)Methyl]-4′-(Trifluoromethyl)[Biphenyl]-2-Carboxamide] | > 50 µM
6 | CC1(CNC(=O)c2ccccc2-c2ccc(C(F)(F)F)cc2)NC(=O)NC1=O (racemic) [Example 95, Rac-N-[(4-Methyl-2,5-Dioxoimidazolidin-4-Yl)Methyl]-4′-(Trifluoromethyl)[Biphenyl]-2-Carboxamide] | > 50 µM
7 | Cc1c(C2(CNC(=O)c3ccccc3-c3ccc(C(F)(F)F)cc3)NC(=O)NC2=O)cnn1CC(F)(F)F (racemic) [Example 98, Rac-N-({4-[5-Methyl-1-(2,2,2-Trifluoroethyl)-1H-Pyrazol-4-Yl]-2,5-Dioxoimidazolidin-4-Yl}Methyl)-4′-(Trifluoromethyl)[Biphenyl]-2-Carboxamide] | 21 µM
8 | Cc1ccc(-c2ccccc2C(=O)NCC2(c3ccccn3)NC(=O)NC2=O)cc1 (racemic) [Example 164, Rac-N-{[2,5-Dioxo-4-(Pyridin-2-Yl)Imidazolidin-4-Yl]Methyl}-4′-Methyl[Biphenyl]-2-Carboxamide] | 14 µM
9 | Cn1nccc1C1(CNC(=O)c2ccc(F)cc2-c2ccc(C(F)(F)F)cc2)NC(=O)NC1=O (racemic) [Example 183, Rac-5-Fluoro-N-{[4-(1-Methyl-1H-Pyrazol-5-Yl)-2,5-Dioxoimidazolidin-4-Yl]Methyl}-4′-(Trifluoromethyl)[Biphenyl]-2-Carboxamide] | 19 µM
10 | O=C1NC(=O)C(CNC(=O)c2ccccc2-c2ccc(C(F)(F)F)cc2)(c2cscn2)N1 (racemic) [Example 196, Rac-N-{[2,5-Dioxo-4-(1,3-Thiazol-4-Yl)Imidazolidin-4-Yl]Methyl}-4′-(Trifluoromethyl)[Biphenyl]-2-Carboxamide] | 30 µM
11 | O=C1NC(=O)C(CNC(=O)c2ccc(F)cc2-c2ccc(C(F)(F)F)cc2)(c2cscn2)N1 (racemic) [Example 198, Rac-N-{[2,5-Dioxo-4-(1,3-Thiazol-4-Yl)Imidazolidin-4-Yl]Methyl}-5-Fluoro-4′-(Trifluoromethyl)[Biphenyl]-2-Carboxamide] | 39 µM
12 | Cc1ccc(-c2ccccc2C(=O)NCC2(c3nccs3)NC(=O)NC2=O)cc1 (racemic) [Example 200, Rac-N-{[2,5-Dioxo-4-(1,3-Thiazol-2-Yl)Imidazolidin-4-Yl]Methyl}-4′-Methyl[Biphenyl]-2-Carboxamide] | 28 µM
13 | Cc1ccc(C(=O)NCC2(C(C)C)NC(=O)NC2=O)c(-c2ccc(C(F)(F)F)cc2)c1 (racemic) [Example 202, Rac-N-[(4-Isopropyl-2,5-Dioxoimidazolidin-4-Yl)Methyl]-5-Methyl-4′-(Trifluoromethyl)[Biphenyl]-2-Carboxamide] | 38 µM
14 | Cc1ccc(-c2ccccc2C(=O)NCC2(C(C)C)NC(=O)NC2=O)cc1 (racemic) [Example 204, Rac-N-[(4-Isopropyl-2,5-Dioxoimidazolidin-4-Yl)Methyl]-4′-Methyl[Biphenyl]-2-Carboxamide] | 22 µM
15 | CC(C)C1(CNC(=O)c2ccc(F)cc2-c2ccc(C(F)(F)F)cc2)NC(=O)NC1=O (racemic) [Example 206, Rac-5-Fluoro-N-[(4-Isopropyl-2,5-Dioxoimidazolidin-4-Yl)Methyl]-4′-(Trifluoromethyl)[Biphenyl]-2-Carboxamide] | > 50 µM
16 | CC(C)C1(CNC(=O)c2ccccc2-c2ccc(C(F)(F)F)cc2)NC(=O)NC1=O (racemic) [Example 208, Rac-N-[(4-Isopropyl-2,5-Dioxoimidazolidin-4-Yl)Methyl]-4′-(Trifluoromethyl)[Biphenyl]-2-Carboxamide] | > 50 µM
17 | O=C1NC(=O)C(CNC(=O)c2ccc(F)cc2-c2ccc(C(F)(F)F)cc2)(c2ncccc2C(F)(F)F)N1 (racemic) [Example 240, Rac-N-({2,5-Dioxo-4-[3-(Trifluoromethyl)Pyridin-2-Yl]Imidazolidin-4-Yl}Methyl)-5-Fluoro-4′-(Trifluoromethyl)[Biphenyl]-2-Carboxamide] | > 50 µM
18 | O=C1NC(=O)C(CNC(=O)c2ccc(F)cc2-c2ccc(Cl)cc2)(c2ncccc2C(F)(F)F)N1 (racemic) [Example 241, Rac-4′-Chloro-N-({2,5-Dioxo-4-[3-(Trifluoromethyl)Pyridin-2-Yl]Imidazolidin-4-Yl}Methyl)-5-Fluoro[Biphenyl]-2-Carboxamide] | 41 µM
19 | O=C1NC(=O)C(CNC(=O)c2ccccc2-c2ccc(Cl)cc2)(c2ncccc2C(F)(F)F)N1 (racemic) [Example 242, Rac-4′-Chloro-N-({2,5-Dioxo-4-[3-(Trifluoromethyl)Pyridin-2-Yl]Imidazolidin-4-Yl}Methyl)[Biphenyl]-2-Carboxamide] | 29 µM

The next compounds have a lower IC50 than those just listed; values first:

Row | IC50 | SMILES
20 | 7.4 µM | Cc1cnn(C)c1C1(CNC(=O)c2ccccc2-c2ccc(C(F)(F)F)cc2)NC(=O)NC1=O (racemic) [Example 61, Rac-N-{[4-(1,4-Dimethyl-1H-Pyrazol-5-Yl)-2,5-Dioxoimidazolidin-4-Yl]Methyl}-4′-(Trifluoromethyl)[Biphenyl]-2-Carboxamide]
21 | 13 µM | Cc1nscc1C1(CNC(=O)c2ccccc2-c2ccc(C(F)(F)F)cc2)NC(=O)NC1=O (racemic) [Example 63, Rac-N-{[4-(3-Methyl-1,2-Thiazol-4-Yl)-2,5-Dioxoimidazolidin-4-Yl]Methyl}-4′-(Trifluoromethyl)[Biphenyl]-2-Carboxamide]
22 | 5.4 µM | O=C1NC(=O)C(CNC(=O)c2ccccc2-c2ccc(C(F)(F)F)cc2)(c2cncn2CC(F)(F)F)N1 (racemic) [Example 94, Rac-N-({2,5-Dioxo-4-[1-(2,2,2-Trifluoroethyl)-1H-Imidazol-5-Yl]Imidazolidin-4-Yl}Methyl)-4′-(Trifluoromethyl)[Biphenyl]-2-Carboxamide]
23 | 7.2 µM | Cc1cnsc1C1(CNC(=O)c2ccccc2-c2ccc(C(F)(F)F)cc2)NC(=O)NC1=O (racemic) [Example 97, Rac-N-{[4-(4-Methyl-1,2-Thiazol-5-Yl)-2,5-Dioxoimidazolidin-4-Yl]Methyl}-4′-(Trifluoromethyl)[Biphenyl]-2-Carboxamide]
24 | 6.6 µM | Cc1scnc1C1(CNC(=O)c2cc(F)ccc2-c2ccc(C(F)(F)F)cc2)NC(=O)NC1=O (racemic) [Example 165, Rac-4-Fluoro-N-{[4-(5-Methyl-1,3-Thiazol-4-Yl)-2,5-Dioxoimidazolidin-4-Yl]Methyl}-4′-(Trifluoromethyl)[Biphenyl]-2-Carboxamide]
25 | 4.4 µM | Cc1ccc(C(=O)NCC2(c3ncsc3C)NC(=O)NC2=O)c(-c2ccc(C(F)(F)F)cc2)c1 (racemic) [Example 167, Rac-5-Methyl-N-{[4-(5-Methyl-1,3-Thiazol-4-Yl)-2,5-Dioxoimidazolidin-4-Yl]Methyl}-4′-(Trifluoromethyl)[Biphenyl]-2-Carboxamide]
26 | 8.5 µM | Cc1scnc1C1(CNC(=O)c2ccc(F)cc2-c2ccc(Cl)cc2)NC(=O)NC1=O (racemic) [Example 169, Rac-4′-Chloro-5-Fluoro-N-{[4-(5-Methyl-1,3-Thiazol-4-Yl)-2,5-Dioxoimidazolidin-4-Yl]Methyl}[Biphenyl]-2-Carboxamide]
27 | 6.9 µM | Cc1scnc1C1(CNC(=O)c2ccccc2-c2ccc(Cl)cc2)NC(=O)NC1=O (racemic) [Example 171, Rac-4′-Chloro-N-{[4-(5-Methyl-1,3-Thiazol-4-Yl)-2,5-Dioxoimidazolidin-4-Yl]Methyl}[Biphenyl]-2-Carboxamide]
28 | 12 µM | Cn1nccc1C1(CNC(=O)c2cc(F)ccc2-c2ccc(C(F)(F)F)cc2)NC(=O)NC1=O (racemic) [Example 177, Rac-4-Fluoro-N-{[4-(1-Methyl-1H-Pyrazol-5-Yl)-2,5-Dioxoimidazolidin-4-Yl]Methyl}-4′-(Trifluoromethyl)[Biphenyl]-2-Carboxamide]
29 | 12 µM | Cn1nccc1C1(CNC(=O)c2ccc(F)cc2-c2ccc(Cl)cc2)NC(=O)NC1=O (racemic) [Example 179, Rac-4′-Chloro-5-Fluoro-N-{[4-(1-Methyl-1H-Pyrazol-5-Yl)-2,5-Dioxoimidazolidin-4-Yl]Methyl}[Biphenyl]-2-Carboxamide]
30 | 12 µM | Cn1nccc1C1(CNC(=O)c2ccccc2-c2ccc(Cl)cc2)NC(=O)NC1=O (racemic) [Example 181, Rac-4′-Chloro-N-{[4-(1-Methyl-1H-Pyrazol-5-Yl)-2,5-Dioxoimidazolidin-4-Yl]Methyl}[Biphenyl]-2-Carboxamide]

Source: patent US12398120B2, “Substituted hydantoinamides as ADAMTS7 antagonists” (BAYER AKTIENGESELLSCHAFT, priority 2019, dated 2025)
